Data published in ChEMBL document CHEMBL5653631, “A Potent and Selective ULK1 Inhibitor Suppresses Autophagy and Sensitizes Cancer Cells to Nutrient Stress” (iScience, 2018).
Values belong to the compound of their own block, whether it stands above or below them.

Columns and labels:
[1] = molecular target: Cyclin-dependent kinase 13 (Homo sapiens) (UniProt Q14004); assay: Inhibition of human recombinant CHED at 500 nM in presence of ATP by radiometric assay relative to control
[2] = molecular target: Dual specificity mitogen-activated protein kinase kinase 1 (Homo sapiens) (UniProt Q02750); assay: Inhibition of human recombinant MAP2K1 at 500 nM in presence of ATP by radiometric assay relative to control
Dual specificity mitogen-activated protein kinase kinase 1 (Homo sapiens), sequence (Q02750 whole entry): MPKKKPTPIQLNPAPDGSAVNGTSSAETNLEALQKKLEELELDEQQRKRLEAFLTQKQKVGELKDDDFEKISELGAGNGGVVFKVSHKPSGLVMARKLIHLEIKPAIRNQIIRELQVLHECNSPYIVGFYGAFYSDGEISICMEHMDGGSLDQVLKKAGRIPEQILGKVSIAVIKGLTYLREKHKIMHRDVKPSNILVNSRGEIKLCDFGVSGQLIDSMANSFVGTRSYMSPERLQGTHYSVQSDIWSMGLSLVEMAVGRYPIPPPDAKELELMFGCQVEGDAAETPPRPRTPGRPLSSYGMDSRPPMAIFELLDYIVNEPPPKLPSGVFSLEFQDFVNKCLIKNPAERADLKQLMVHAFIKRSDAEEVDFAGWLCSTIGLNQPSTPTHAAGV

[3] = molecular target: Tyrosine-protein kinase BTK (Homo sapiens) (UniProt Q06187); assay: Inhibition of human recombinant BTK at 40 nM in presence of ATP by radiometric assay relative to control
Tyrosine-protein kinase BTK (Homo sapiens), sequence (Q06187 whole entry): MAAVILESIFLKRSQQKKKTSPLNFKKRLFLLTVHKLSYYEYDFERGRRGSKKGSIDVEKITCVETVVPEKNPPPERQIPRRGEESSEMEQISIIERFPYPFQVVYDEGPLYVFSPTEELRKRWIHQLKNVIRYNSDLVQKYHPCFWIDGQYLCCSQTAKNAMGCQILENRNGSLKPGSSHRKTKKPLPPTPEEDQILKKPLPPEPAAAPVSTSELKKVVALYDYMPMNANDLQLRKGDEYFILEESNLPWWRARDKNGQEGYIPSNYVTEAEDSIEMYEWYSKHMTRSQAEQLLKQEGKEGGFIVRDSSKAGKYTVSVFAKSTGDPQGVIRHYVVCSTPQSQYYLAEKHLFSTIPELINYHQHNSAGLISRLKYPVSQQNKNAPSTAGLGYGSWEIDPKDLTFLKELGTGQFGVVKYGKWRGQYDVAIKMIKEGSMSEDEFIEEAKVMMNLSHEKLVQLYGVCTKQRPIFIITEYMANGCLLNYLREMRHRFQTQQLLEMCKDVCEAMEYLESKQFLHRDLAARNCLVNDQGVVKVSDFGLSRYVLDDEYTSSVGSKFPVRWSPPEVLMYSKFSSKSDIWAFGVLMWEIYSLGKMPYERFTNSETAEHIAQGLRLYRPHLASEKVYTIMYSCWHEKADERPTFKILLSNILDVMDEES

[4] = molecular target: Serine/threonine-protein kinase/endoribonuclease IRE1 (Homo sapiens) (UniProt O75460); assay: Inhibition of human recombinant IRE1 at 40 nM in presence of ATP by radiometric assay relative to control
Serine/threonine-protein kinase/endoribonuclease IRE1 (Homo sapiens), sequence (O75460 19-977 limits assumed): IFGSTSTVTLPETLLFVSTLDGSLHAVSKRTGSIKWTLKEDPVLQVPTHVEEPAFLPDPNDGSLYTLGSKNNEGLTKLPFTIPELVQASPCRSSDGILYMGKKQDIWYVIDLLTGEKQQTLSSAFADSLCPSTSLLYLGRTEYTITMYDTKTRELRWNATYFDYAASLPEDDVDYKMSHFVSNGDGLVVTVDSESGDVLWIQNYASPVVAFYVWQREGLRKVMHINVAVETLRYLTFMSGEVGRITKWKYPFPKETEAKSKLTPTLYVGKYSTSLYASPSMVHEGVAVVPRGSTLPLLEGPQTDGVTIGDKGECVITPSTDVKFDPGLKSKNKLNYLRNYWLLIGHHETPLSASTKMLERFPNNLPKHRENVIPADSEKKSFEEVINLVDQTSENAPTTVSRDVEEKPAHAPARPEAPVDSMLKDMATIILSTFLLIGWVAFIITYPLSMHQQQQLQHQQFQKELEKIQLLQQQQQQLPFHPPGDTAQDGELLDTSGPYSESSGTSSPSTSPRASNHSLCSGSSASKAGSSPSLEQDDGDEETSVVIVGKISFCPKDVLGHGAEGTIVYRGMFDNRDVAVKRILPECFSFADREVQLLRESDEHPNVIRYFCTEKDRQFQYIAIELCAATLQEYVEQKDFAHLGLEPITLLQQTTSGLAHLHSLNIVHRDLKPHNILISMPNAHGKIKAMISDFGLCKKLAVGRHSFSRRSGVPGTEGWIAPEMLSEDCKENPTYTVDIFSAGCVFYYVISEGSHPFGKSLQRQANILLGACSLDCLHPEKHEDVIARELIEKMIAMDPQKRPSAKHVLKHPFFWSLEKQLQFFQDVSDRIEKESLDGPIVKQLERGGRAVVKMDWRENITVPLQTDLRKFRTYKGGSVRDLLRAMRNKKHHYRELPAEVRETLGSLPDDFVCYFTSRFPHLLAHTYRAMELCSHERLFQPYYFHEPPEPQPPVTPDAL

[5] = molecular target: Fibroblast growth factor receptor 1 (Homo sapiens) (UniProt P11362); assay: Inhibition of human recombinant FGFR1 at 40 nM in presence of ATP by radiometric assay relative to control
Fibroblast growth factor receptor 1 (Homo sapiens), sequence (P11362 22-822 limits assumed): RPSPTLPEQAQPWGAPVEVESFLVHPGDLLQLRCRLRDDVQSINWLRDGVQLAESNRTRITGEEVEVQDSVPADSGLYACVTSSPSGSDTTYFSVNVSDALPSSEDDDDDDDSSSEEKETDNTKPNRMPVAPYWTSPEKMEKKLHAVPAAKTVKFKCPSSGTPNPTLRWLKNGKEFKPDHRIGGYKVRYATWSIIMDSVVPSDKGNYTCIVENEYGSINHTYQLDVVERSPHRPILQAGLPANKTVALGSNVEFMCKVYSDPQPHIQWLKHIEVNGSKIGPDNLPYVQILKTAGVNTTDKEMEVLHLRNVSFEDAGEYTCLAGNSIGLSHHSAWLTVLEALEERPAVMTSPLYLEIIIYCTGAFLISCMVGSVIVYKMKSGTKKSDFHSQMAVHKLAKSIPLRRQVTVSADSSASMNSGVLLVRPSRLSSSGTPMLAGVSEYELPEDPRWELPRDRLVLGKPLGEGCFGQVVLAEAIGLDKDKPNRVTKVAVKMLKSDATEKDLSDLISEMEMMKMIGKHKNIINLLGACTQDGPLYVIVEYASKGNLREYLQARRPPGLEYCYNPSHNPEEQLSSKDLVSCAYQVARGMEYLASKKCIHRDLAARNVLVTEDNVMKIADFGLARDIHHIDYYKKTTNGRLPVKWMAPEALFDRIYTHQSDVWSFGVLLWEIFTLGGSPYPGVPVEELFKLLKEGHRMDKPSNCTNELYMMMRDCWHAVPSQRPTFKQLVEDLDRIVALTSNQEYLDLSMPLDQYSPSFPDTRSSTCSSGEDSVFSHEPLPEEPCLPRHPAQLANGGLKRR

[6] = molecular target: T1, Serine/threonine-protein kinase D3 (Homo sapiens) (UniProt O94806); assay: Inhibition of human recombinant PKD3 at 15 nM in presence of ATP by radiometric assay relative to control
T1 sequence (whole entry): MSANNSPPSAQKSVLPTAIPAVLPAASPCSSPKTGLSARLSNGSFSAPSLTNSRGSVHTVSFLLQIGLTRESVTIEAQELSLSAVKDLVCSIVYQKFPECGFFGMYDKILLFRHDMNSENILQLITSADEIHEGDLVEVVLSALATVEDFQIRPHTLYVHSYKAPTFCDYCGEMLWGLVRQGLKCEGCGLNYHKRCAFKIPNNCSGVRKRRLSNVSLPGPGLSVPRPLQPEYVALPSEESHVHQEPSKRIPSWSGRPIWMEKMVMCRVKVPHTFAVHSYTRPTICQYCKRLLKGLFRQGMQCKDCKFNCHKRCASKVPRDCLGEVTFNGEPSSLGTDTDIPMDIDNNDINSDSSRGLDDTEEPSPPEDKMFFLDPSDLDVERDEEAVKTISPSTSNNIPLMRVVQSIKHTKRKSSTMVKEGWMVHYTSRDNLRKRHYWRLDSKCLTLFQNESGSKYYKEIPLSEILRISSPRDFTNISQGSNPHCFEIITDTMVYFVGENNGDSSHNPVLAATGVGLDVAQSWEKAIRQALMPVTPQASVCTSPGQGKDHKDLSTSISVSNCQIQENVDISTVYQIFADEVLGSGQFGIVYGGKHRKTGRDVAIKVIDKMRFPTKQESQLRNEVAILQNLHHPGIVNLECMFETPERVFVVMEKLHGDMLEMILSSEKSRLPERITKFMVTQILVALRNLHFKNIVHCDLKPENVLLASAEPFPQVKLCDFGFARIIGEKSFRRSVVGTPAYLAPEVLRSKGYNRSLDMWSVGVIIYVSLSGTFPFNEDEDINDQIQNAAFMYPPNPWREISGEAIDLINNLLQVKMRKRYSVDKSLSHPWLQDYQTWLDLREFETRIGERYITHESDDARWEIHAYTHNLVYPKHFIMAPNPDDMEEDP

[7] = molecular target: Eukaryotic translation initiation factor 2-alpha kinase 1 (Homo sapiens) (UniProt Q9BQI3); assay: Inhibition of human recombinant HRI at 15 nM in presence of ATP by radiometric assay relative to control
[8] = molecular target: T2, Myosin-IIIb (Homo sapiens) (UniProt Q8WXR4); assay: Inhibition of human recombinant MYO3B at 15 nM related to control ULK1
T2 sequence (whole entry): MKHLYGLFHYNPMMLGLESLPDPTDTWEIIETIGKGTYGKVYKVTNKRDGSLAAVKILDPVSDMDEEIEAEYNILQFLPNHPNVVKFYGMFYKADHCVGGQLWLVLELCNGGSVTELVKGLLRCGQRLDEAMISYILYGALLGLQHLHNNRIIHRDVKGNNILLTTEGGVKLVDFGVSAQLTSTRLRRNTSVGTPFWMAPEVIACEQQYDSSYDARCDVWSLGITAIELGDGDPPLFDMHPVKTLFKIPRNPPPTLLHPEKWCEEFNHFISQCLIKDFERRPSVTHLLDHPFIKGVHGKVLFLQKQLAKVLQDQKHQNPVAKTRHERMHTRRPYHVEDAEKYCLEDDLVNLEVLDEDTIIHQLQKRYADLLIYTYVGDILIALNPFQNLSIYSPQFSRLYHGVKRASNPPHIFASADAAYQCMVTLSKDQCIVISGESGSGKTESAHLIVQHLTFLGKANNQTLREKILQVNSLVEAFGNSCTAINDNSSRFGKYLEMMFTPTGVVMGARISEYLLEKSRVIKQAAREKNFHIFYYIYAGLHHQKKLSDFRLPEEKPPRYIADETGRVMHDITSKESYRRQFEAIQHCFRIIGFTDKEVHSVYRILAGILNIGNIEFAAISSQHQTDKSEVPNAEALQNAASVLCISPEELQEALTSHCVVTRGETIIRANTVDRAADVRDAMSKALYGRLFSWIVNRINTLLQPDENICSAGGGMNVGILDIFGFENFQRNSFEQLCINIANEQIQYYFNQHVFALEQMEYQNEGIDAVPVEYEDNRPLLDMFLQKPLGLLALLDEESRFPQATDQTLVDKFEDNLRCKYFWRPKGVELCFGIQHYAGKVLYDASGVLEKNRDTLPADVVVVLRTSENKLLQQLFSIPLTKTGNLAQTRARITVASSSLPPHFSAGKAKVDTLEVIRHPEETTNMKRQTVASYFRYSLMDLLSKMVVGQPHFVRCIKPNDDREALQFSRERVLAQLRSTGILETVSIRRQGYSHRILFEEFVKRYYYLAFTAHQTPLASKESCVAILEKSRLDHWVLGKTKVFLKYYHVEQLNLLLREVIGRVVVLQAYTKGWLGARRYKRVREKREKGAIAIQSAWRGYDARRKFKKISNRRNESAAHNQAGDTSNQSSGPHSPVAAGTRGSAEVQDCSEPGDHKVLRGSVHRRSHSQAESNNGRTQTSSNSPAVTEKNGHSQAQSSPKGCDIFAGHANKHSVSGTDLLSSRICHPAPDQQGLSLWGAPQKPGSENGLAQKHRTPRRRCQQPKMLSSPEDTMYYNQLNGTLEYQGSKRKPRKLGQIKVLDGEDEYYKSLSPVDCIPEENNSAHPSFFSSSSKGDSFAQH

[9] = molecular target: Ribosomal protein S6 kinase alpha-3 (Homo sapiens) (UniProt P51812); assay: Inhibition of human recombinant RSK2 at 15 nM in presence of ATP by radiometric assay relative to control
Ribosomal protein S6 kinase alpha-3 (Homo sapiens), sequence (P51812 whole entry): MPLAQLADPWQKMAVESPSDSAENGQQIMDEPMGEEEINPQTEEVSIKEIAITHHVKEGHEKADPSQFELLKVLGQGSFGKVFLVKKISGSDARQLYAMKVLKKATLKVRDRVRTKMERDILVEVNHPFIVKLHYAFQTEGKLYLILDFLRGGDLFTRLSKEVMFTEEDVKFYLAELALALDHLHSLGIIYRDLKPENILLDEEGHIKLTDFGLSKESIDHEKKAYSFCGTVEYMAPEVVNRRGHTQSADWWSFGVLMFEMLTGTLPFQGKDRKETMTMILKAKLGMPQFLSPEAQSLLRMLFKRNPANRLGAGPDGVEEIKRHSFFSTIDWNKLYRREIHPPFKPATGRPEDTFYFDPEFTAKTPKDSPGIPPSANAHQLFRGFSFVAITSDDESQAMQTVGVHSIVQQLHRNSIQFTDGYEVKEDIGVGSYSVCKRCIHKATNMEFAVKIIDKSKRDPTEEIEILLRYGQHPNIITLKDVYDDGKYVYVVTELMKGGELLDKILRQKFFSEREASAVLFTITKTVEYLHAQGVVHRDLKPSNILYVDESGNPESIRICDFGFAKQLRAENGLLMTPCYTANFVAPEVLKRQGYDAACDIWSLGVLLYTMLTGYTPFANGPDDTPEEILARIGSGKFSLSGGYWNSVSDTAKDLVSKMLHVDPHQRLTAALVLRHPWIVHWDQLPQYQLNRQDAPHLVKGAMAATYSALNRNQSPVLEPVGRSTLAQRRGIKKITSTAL

[10] = molecular target: Serine/threonine-protein kinase D2 (Homo sapiens) (UniProt Q9BZL6); assay: Inhibition of human recombinant PKD2 at 15 nM in presence of ATP by radiometric assay relative to control

Cyclin-dependent kinase 13 (Homo sapiens), sequence (Q14004 whole entry, looked up): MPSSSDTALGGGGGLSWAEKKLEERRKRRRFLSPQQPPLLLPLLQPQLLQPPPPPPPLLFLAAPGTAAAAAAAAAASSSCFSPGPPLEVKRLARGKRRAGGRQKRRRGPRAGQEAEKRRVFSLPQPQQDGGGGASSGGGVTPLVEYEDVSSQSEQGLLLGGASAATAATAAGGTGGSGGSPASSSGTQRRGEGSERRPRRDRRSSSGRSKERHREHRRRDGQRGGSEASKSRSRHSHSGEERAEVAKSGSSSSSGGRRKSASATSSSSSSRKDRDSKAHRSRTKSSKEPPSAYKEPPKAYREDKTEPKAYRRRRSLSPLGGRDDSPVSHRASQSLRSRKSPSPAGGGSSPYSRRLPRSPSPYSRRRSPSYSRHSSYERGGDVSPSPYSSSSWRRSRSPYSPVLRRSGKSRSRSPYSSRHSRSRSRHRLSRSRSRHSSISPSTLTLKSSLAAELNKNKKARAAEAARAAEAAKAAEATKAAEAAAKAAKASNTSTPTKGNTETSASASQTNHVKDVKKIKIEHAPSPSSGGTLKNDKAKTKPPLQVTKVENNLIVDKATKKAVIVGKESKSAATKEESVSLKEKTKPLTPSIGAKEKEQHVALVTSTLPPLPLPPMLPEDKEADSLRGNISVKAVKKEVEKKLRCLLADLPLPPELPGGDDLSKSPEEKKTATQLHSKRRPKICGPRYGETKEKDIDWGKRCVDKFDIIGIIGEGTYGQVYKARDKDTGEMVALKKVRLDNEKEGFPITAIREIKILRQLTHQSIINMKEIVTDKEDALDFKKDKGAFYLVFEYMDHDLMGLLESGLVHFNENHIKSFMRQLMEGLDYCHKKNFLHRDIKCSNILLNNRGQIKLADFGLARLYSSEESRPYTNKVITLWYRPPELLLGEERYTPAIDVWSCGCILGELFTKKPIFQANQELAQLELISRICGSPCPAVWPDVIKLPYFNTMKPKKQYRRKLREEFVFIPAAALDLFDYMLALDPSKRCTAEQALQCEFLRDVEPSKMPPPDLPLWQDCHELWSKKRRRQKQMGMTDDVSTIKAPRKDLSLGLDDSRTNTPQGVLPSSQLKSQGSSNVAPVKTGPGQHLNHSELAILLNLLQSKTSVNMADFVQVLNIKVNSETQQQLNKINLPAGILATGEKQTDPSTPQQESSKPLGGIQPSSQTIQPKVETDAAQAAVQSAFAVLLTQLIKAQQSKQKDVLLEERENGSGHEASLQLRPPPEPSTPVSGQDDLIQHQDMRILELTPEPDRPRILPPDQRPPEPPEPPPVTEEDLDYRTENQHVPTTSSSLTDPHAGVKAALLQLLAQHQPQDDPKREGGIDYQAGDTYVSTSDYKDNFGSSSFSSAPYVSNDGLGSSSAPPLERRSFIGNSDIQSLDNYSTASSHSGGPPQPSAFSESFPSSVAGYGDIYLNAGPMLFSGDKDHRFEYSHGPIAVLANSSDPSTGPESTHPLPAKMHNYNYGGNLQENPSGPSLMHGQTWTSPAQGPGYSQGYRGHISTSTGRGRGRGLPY

inhibition [1]: 0%
inhibition [2]: 0%
Compound: CNC(=O)c1ccccc1Oc1nc(Nc2cc(OC)c(OC)c(OC)c2)ncc1Br

inhibition [3]: 0%
inhibition [4]: 0%
inhibition [5]: 0%
Compound: O=C(N[C@@H](C1CC1)C(F)(F)F)c1cc(-c2cnn3cc(-c4ccc(F)cc4)cnc23)cs1

inhibition [6]: 7%
inhibition [7]: 0%
fold change (FC) [8]: 0.07
inhibition [9]: 0%
inhibition [10]: 0%
Compound: CC(C)[C@H](NC(=O)c1cc(-c2cnn3cc(-c4ccc(OCCN5CCCCC5)cc4)cnc23)cs1)C(F)(F)F
